Results: patent US7022736B2, “Enzyme inhibitors” (Istituto Di Ricerche Di Biologia Molecolare P Angeletti SpA, priority 1998, dated 2006)
Like-named read-outs stand apart in the source and are kept apart here.

Legend:
[1] = biological target: T1, polymerase of hepatitis B virus (HBV pol) (Hepatitis B virus genotype D subtype ayw, UniProt P03156); assay: Inhibition of hepatitis B virus polymerase (32P-dNTP incorporation, viral particles from patient sera); format: biochemical; settings: Tables IXa-IXc; unit inferred; NA=not active as an inhibitor
T1 construct: obtained in the form of viral particles from the sera of HBV positive patients; from tissue; host or cells: sera of HBV positive patients (viral particles)
Experimental: Analogous assays employed the polymerase of hepatitis B virus (HBV pol), obtained in the form of viral particles from the sera of HBV positive patients. These particles contain a polymerase bound to an incomplete double stranded DNA template. In the assay the incorporation of ^32P-dNTP is measured as radioactivity incorporated in acid insoluble precipitate.
The standard reaction (100 μl) was carried out in a buffer containing 50 mM tris/HCl pH 7.5, 30 mM MgCl 2 , 1 mM DTT, 100 mM KCl, 0.02% Triton X-100, 1 μCi[^32P] dCTP (300 Ci/mmol, NEN), 1 μM dATP, dTTP, dGTP. After 1 hour incubation at 37° C. the reaction was stopped by adding 100 μl of 20% TCA and applying samples to DE81 filters. The filters were processed and IC50 values calculated as described above.

[2] = biological target: T2, HCV RdRp (NS5B RNA-dependent RNA polymerase) (Hepatitis C virus genotype 1b, UniProt P26663); assay: Inhibition of hepatitis C virus RdRp (poly(A)/oligo(U), [3H]UTP incorporation); format: biochemical
T2 construct: The HCV NS5B protein is the viral RdRp; made in house; host or cells: insect cells infected with recombinant baculovirus
Summary of the method: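 Baculovirus-expressed recombinant NS5B (20 nM) polymerised on poly(A) template (10 μg/ml) with oligo(U)12 primer, 10 μM UTP plus [3H]UTP, pH 7.5 Tris buffer with 5 mM MgCl2, 1 h at 22 °C. Acid-insoluble radioactivity counted on filters; IC50 fitted from residual activity with slope term.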

[3] = biological target: T3, reverse transcriptase of HIV (HIV-1 RT) (Human immunodeficiency virus type 1 group M subtype B, UniProt P03366); assay: Inhibition of HIV-1 reverse transcriptase ([3H]dTTP incorporation); format: biochemical, Human Immunodeficiency Virus-1; settings: Tables IXa-IXc; unit inferred; NA=not active as an inhibitor
T3 construct: the reverse transcriptase of HIV (HIV -1RT) from Boehringer Mannhium; purchased Boehringer Mannheim (printed 'Boehringer Mannhium')
Experimental: Test for Inhibition of Human Immunodeficiency Virus-1 Reverse Transcriptase
Analogous assays employed the reverse transcriptase of HIV (HIV -1RT) from Boehringer Mannhium.
Incorporation of radioactive dTTP was measured as follows. The standard reaction (100 μl) was carried out in a buffer containing 50 mM tris/HCl pH 8.2, 2.5 mM MgCl 2, 1 mM DTT, 80 mM KCl, 5 mM EGTA, 0.05% Triton X-100, 1 μCi[3H] dTTP (40 Ci/mmol, NEN), 10 μM […] and 10 μg/ml poly(A)/dT (from Pharmacia).

[4] = Tables I-VIII, 20 nM NS5B, 1 hour at 22° C., read-out: IC 50 (μM), HCV-polymerase
[5] = Tables IXa-IXc, unit inferred, read-out: HCV (IC50)

T2 sequence (P26663 2420-3010): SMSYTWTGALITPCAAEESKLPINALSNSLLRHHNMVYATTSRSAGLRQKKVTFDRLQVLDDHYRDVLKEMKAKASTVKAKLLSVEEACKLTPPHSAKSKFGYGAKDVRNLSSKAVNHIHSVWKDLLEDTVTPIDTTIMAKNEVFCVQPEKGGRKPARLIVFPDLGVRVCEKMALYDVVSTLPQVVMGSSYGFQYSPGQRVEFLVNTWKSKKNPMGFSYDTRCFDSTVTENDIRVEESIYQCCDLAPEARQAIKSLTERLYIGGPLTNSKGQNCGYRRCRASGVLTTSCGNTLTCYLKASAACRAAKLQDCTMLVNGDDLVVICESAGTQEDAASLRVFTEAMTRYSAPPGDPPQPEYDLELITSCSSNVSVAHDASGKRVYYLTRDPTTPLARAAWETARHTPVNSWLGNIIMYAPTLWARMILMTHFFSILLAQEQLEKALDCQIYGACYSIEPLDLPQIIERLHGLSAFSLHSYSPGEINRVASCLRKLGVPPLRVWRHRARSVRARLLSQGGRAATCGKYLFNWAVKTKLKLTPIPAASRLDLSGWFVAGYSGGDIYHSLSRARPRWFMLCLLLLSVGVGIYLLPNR
T1 sequence (P03156 whole entry): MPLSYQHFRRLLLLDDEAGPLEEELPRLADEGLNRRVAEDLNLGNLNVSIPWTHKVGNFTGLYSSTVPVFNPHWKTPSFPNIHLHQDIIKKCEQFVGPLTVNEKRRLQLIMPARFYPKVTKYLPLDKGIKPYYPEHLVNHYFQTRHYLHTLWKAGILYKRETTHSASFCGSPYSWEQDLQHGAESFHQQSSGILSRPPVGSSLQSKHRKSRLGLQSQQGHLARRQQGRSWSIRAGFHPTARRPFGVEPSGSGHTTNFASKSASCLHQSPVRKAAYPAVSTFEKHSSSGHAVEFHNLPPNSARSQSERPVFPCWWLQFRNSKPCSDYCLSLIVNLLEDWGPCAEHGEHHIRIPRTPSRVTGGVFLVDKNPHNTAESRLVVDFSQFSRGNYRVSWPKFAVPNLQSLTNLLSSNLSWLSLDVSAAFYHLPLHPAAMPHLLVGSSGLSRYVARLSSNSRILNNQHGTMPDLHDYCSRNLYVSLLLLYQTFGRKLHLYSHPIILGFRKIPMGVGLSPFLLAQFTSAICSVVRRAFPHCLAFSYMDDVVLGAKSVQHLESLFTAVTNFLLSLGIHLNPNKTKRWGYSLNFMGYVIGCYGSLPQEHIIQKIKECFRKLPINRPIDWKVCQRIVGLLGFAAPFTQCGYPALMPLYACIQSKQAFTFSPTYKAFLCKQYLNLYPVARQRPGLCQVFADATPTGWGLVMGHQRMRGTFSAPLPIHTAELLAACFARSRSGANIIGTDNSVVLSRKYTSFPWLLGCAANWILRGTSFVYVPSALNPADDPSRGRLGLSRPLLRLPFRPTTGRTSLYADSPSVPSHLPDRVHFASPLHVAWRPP

O=C(O)C(O)=CC(=O)c1ccc(Cc2cccc(F)c2)s1 [Example 205]
IC50 [1]: 3.3 µM | IC50 [2, 4]: 74 µM | IC50 [2, 5]: 74 µM

O=C(O)C(O)=CC(=O)c1ccc(-c2ccccc2)s1 [Example 196]
IC50 [1]: 9 µM | IC50 [3]: 50 µM | IC50 [2, 4]: 15 µM | IC50 [2, 5]: 15 µM

O=C(O)C(O)=CC(=O)c1cccc(OCCc2ccccc2)c1 [Example 18]
IC50 [3]: 30 µM | IC50 [2, 4]: 2.2 µM | IC50 [2, 5]: 2.2 µM

O=C(O)C(O)=CC(=O)c1cccc(OCc2c(F)cccc2F)c1 [Example 7]
IC50 [3]: 61 µM | IC50 [2, 4]: 2.92 µM | IC50 [2, 5]: 3.3 µM

O=C(O)C(O)=CC(=O)c1ccc(-c2cc(Cl)cc(Cl)c2)o1 [Example 258]
IC50 [3]: 3.6 µM | IC50 [2, 5]: > 100 µM

O=C(O)C(O)=CC(=O)c1ccccc1 [Example 1]
IC50 [3]: 90 µM | IC50 [2, 4]: 5.6 µM | IC50 [2, 5]: 5.6 µM

O=C(O)C(O)=CC(=O)c1ccccc1OCc1ccccc1 [Example 8]
IC50 [3]: 19 µM | IC50 [2, 4]: 44 µM | IC50 [2, 5]: 44 µM

Cc1sc(-c2ccccc2)cc1C(=O)C=C(O)C(=O)O [Example 225]
IC50 [1]: 4 µM | IC50 [3]: 86 µM | IC50 [2, 4]: 167 µM | IC50 [2, 5]: 167 µM

O=C(O)C(=O)Nc1cccc(C(=O)C=C(O)C(=O)O)c1 [Example 24]
IC50 [3]: 71 µM | IC50 [2, 4]: 19 µM | IC50 [2, 5]: 19 µM

O=C(O)C(O)=CC(=O)c1cccc(OCc2ccccc2)c1 [Example 4]
IC50 [3]: > 100 µM | IC50 [2, 4]: 8 µM | IC50 [2, 5]: 8 µM

O=C(O)C(O)=CC(=O)c1ccc(Cc2ccccc2)s1 [Example 202]
IC50 [1]: 9 µM | IC50 [3]: > 100 µM | IC50 [2, 4]: 68 µM | IC50 [2, 5]: 70 µM

O=C(O)C(O)=CC(=O)c1cccc(NS(=O)(=O)c2cc(Cl)cc(Cl)c2)c1 [Example 117]
IC50 [3]: 100 µM | IC50 [2, 4]: 0.14 µM | IC50 [2, 5]: 0.14 µM

O=C(O)C(O)=CC(=O)c1cc(O)cc(OCc2ccccc2)c1 [Example 155]
IC50 [3]: 130 µM | IC50 [2, 4]: 1.4 µM | IC50 [2, 5]: 1.4 µM

O=C(O)C(O)=CC(=O)c1ccc(-c2ccc(F)c(Cl)c2)o1 [Example 218]
IC50 [3]: 11.8 µM | IC50 [2, 4]: 41.2 µM | IC50 [2, 5]: 41.2 µM

O=C(O)C(O)=CC(=O)c1ccc(Cc2ccc(F)cc2)s1 [Example 206]
IC50 [1]: 2 µM | IC50 [2, 4]: 65 µM | IC50 [2, 5]: 65 µM

O=C(O)C(O)=CC(=O)c1cccc(NS(=O)(=O)c2cccc3ccccc23)c1 [Example 78]
IC50 [3]: 35 µM | IC50 [2, 4]: 0.67 µM | IC50 [2, 5]: 0.67 µM

N#Cc1c(Cl)cc(Cl)cc1COc1cccc(C(=O)C=C(O)C(=O)O)c1 [Example 126]
IC50 [3]: 100 µM | IC50 [2, 4]: 0.056 µM | IC50 [2, 5]: 0.056 µM
